Columns and labels:
[1] = Determination of oral absorption (bioavailability) in the rat
Experimental: The following assay was used to determine the oral absorption (oral bioavailability) of the compound of Formula I (L-monovaline ester of ganciclovir) and of other ganciclovir amino acid esters, other ganciclovir esters and ethers examined for comparative purposes.
To measure the oral bioavailability of a compound first the plasma level of the compound in male rats was determined after a single oral (po) dose of the compound. […] For ganciclovir the single dose in each case, po and iv, is 10 mg/kg; for a prodrug ester (including the L-monovaline ester of ganciclovir) the single dose in each case, oral and iv, is a dose equimolar to 10 mg/kg of ganciclovir. From the two measurements following po and iv administration, the oral bioavailability of a compound was calculated by dividing the total area under the concentration vs. time curve following p.o. administration by the total area under the concentration vs. time curve following iv administration, appropriately corrected for dose, according to the equation: F(p.o.) (%) = [AUC(p.o.) /AUC(i.v.) ] x [Dose(i.v.) / Dose(p.o.) ] x 100 [formula]
The dose vehicle for oral and intravenous dosing consisted normal saline containing 2 % acetic acid. In both cases the compound concentration was equivalent to 4.0 mg/ml ganciclovir with a dose rate equivalent to 10 mg/kg (2.5 ml/kg) of ganciclovir. A 200 gm rat received 0.5 ml of the oral drug solution by gavage or via injection into the tail vein.
The rats were acclimatized to the laboratory environment for three days and fasted overnight before start of the experiment and until 4 hours after dosing. Blood was collected from 4 rats at each of the following times: 0 min (pre-dose), 5 min (iv only), 15 min, 30 min, 1 hr, 2 hr, 3 hr, 5 hr, 7 hr, 10 hr and 24 hr. The blood was immediately centrifuged to obtain the plasma and the plasma frozen at -20 °C until analysis.
Aliquots of plasma (0.50 ml) were mixed with 0.020 ml of internal standard (acyclovir, 15 µg/ml in 10 % methanol/water) and 3.0 ml of acetonitrile. The mixture was vortexed and the resulting precipitate was removed by centrifugation (4,000 g, 10 min). The supernatant was evaporated to dryness under nitrogen and reconstituted in 200 µl of HPLC mobile phase. Aliquots (0.05 ml) were analyzed by HPLC using a Keystone Hypersil BDS, 250 x 4.6 mm C 18 column. The mobile phase contained 2 % acetonitrile in 30 mM sodium phosphate buffer containing 5 mM heptane sulfonic acid, pH 2.0 and was pumped at 1.0 ml/min. Ganciclovir and internal standard were detected and measured by UV absorbance at 254 nm.

[2] = in vivo, po; cited from earlier work
[3] = relative to acyclovir; cited from earlier work
[4] = Determination of oral absorption (bioavailability) in the Cynomolgus monkey; type: in vivo, Male cynomolgus monkeys; conditions: oral gavage dose equimolar to 10 mg/kg ganciclovir, plasma ganciclovir
Experimental: Male cynomolgus monkeys weighing 5 to 7 kilos were used. The animals were fed monkey chow, fruit and water and maintained on a 12 hour light cycle. The tested compounds were formulated at a concentration equimolar to a 10 mg/ml solution of ganciclovir in saline. The oral formulation was administered by gavage at a rate of 1.0 ml/kg for a final dose equimolar to a 10 mg/kg dose of ganciclovir. The iv formulation of ganciclovir was formulated in saline containing 0.2% HCl at a concentration of 20 mg/ml and administered at a rate of 0.5 ml/kg.
The animals were fasted beginning the evening prior to dosing and until 4 hr after dosing. […] The blood samples were collected in heparinized syringes and the plasma was immediately isolated by centrifugation and frozen at -20 °C until analysis.
The bioavailability (F) is calculated according to the equation given in Example 9.

[5] = type: physicochemical; conditions: pH 7
Experimental: Alternatively, the compound of the invention may be prepared using optically active reactants. When pure diastereomers of mono-L-valine ganciclovir are prepared the condensation step (d) is the preferred method of synthesis. However, if optically active reagents are being used it would be important to avoid the pH range above 6, as at the higher pH range interconversion of the free compound of Formula I occurs.

SMILES: CCC(=O)OCC(COC(=O)CC)OCn1cnc2c(=O)[nH]c(N)nc21 [G-bis(propionic acid) ester]
- ORAL BIOAVAILABILITY (F %) ([1]; rat, in vivo, 1440 min): 17.7%
- more bioavailable than ganciclovir itself [2]: about 42%

SMILES: Nc1nc2c(ncn2COC(COCc2ccccc2)COCc2ccccc2)c(=O)[nH]1 [G-dibenzyl ether]
- ORAL BIOAVAILABILITY (F %) ([1]; male rats, single po and iv dose equimolar to 10 mg/kg ganciclovir, plasma ganciclovir AUC 0-24 hr): non-detectable

SMILES: NCC(=O)OCCOCn1cnc2c(=O)[nH]c(N)nc21 [glycyl ester of acyclovir]
- solubility greater than the solubility of acyclovir itself [3]: about 30 fold

SMILES: CC(C)[C@H](N)C(=O)OCC(CO)OCn1cnc2c(=O)[nH]c(N)nc21.Cl (stereo partly drawn) [G-L-valinate hydrochloride, 2-(2-Amino-1,6-dihydro-6-oxo-purin-9-yl)methoxy-3-hydroxy-1-propanyl-L-valinate hydrochloride]
- ORAL BIOAVAILABILITY (F %) ([1]; rat, in vivo, 1440 min): 98.1%

SMILES: Nc1nc(O)c2ncn(COC(CO)CO)c2n1 [Ganciclovir, 2-(2-Amino-1,6-dihydro-6-oxo-purin-9-yl)-methoxy-1,3-propanediol]
- bioavailability at 24 h ([1]; rat, plasma, po, 10 mg/kg): 7.9%
- bioavailability [4]: 9.9%

SMILES: CC(C)[C@H](N)C(=O)OCC(CO)OCn1cnc2c(=O)nc(N)[nH]c21 (stereo partly drawn) [Formula I, 2-(2-amino-1,6-dihydro-6-oxo-purin-9-yl)methoxy-3-hydroxy-1-propanyl-L-valinate]
- half-life [5]: less than one
